From the NIST ThermoML archive (doi:10.1021/acs.jced.6b00458)
± gives the expanded uncertainty stated by the source.

Assay: mn = molality of the nth substance listed, in mol/kg
Details: 100 kPa, Liquid, Vibrating tube method

**Q.** What does the source list for `[Cl-].[Na+]` [sodium chloride] + O?
**A.** mass density (293.15 K, m1 = 0.1): 1002.42 ± 0.5 kg/m3; mass density (293.15 K, m1 = 0.2): 1006.57 ± 0.5 kg/m3; mass density (293.15 K, m1 = 0.3): 1010.63 ± 0.5 kg/m3; mass density (293.15 K, m1 = 0.4): 1014.73 ± 0.5 kg/m3; mass density (293.15 K, m1 = 0.5): 1018.78 ± 0.5 kg/m3; mass density (293.15 K, m1 = 0.6): 1022.6 ± 0.5 kg/m3; mass density (298.15 K, m1 = 0.1): 1001.21 ± 0.5 kg/m3; mass density (298.15 K, m1 = 0.2): 1005.31 ± 0.5 kg/m3; mass density (298.15 K, m1 = 0.3): 1009.33 ± 0.5 kg/m3; mass density (298.15 K, m1 = 0.4): 1013.38 ± 0.5 kg/m3; mass density (298.15 K, m1 = 0.6): 1021.15 ± 0.5 kg/m3; mass density (303.15 K, m1 = 0.1): 999.767 ± 0.5 kg/m3; mass density (303.15 K, m1 = 0.2): 1003.83 ± 0.5 kg/m3; mass density (303.15 K, m1 = 0.3): 1007.8 ± 0.5 kg/m3; mass density (303.15 K, m1 = 0.4): 1011.82 ± 0.5 kg/m3; mass density (303.15 K, m1 = 0.5): 1015.77 ± 0.5 kg/m3; mass density (308.15 K, m1 = 0.1): 998.116 ± 0.5 kg/m3; mass density (308.15 K, m1 = 0.2): 1002.14 ± 0.5 kg/m3; mass density (308.15 K, m1 = 0.3): 1006.08 ± 0.5 kg/m3; mass density (308.15 K, m1 = 0.4): 1010.07 ± 0.5 kg/m3; mass density (308.15 K, m1 = 0.6): 1017.71 ± 0.5 kg/m3; mass density (313.15 K, m1 = 0.1): 996.272 ± 0.5 kg/m3; mass density (313.15 K, m1 = 0.2): 1000.27 ± 0.5 kg/m3; mass density (313.15 K, m1 = 0.3): 1004.18 ± 0.5 kg/m3; mass density (313.15 K, m1 = 0.4): 1008.14 ± 0.5 kg/m3; mass density (313.15 K, m1 = 0.5): 1012.04 ± 0.5 kg/m3; mass density (313.15 K, m1 = 0.6): 1015.73 ± 0.5 kg/m3
